Patent US6277862A, “Quinoline derivatives” (SmithKline Beecham S.p.A., priority 1995, dated 2001)
pIC50: −log10 of the molar value. Structures can show the parent of a compound that is named as a salt.

Columns and labels:
[1] = biological target: T1, human neurokinin-3 receptors expressed in CHO cell lines (Homo sapiens, UniProt P29371); experiment: biochemical; settings: human NK-3 receptors in CHO cell lines; radioligand [125I]-[Me-Phe7]-NKB; mean of 2-5 separate experiments in duplicate or triplicate; read-out: Binding affinity in hNK-3-CHO IC50
T1 sequence (P29371 1-465): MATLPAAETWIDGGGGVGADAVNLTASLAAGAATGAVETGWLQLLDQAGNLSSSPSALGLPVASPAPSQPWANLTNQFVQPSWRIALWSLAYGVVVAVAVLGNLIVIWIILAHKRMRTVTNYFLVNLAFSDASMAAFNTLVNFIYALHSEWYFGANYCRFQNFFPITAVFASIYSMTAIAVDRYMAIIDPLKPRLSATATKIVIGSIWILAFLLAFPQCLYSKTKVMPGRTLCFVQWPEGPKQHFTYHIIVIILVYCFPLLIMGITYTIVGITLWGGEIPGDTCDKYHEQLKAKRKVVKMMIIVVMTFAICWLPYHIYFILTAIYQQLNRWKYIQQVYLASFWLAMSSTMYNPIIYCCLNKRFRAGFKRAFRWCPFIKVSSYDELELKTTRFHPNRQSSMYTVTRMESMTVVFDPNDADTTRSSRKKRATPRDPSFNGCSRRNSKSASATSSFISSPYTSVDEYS
Method: The activity of the compounds of the present invention, as NK3 ligands, is determined by their ability to inhibit the binding of the radiolabelled NK3 ligands, [^125 I]-[Me--Phe^7 ]-NKB or [^3 H]-Senktide, to guinea-pig and human NK3 receptors (Renzetti et at, 1991, Neuropeptide, 18, 104-114; Buell et al, 1992, FEBS, 299(1), 90-95; Chung et al, 1994, Biochem. Biophys. Res. Commun., 198(3), 967-972).
The binding assays utilized allow the determination of the concentration of the individual compound required to reduce by 50% the [^125 I]-[Me--Phe^7 ]-NKB and [^3 H]-Senktide specific binding to NK3 receptor in equilibrium conditions (IC50).
The NK3 -antagonist activity of the compounds of the present invention is determined by their ability to inhibit senktide-induced contraction of the guinea-pig ileum (Maggi et al, 1990, Br. J. Pharmacol., 101, 996-1000) and rabbit isolated iris sphincter muscle (Hall et al., 1991, Eur. J. Pharmacol., 199, 9-14) and human NK3 receptors-mediated Ca^++ mobilization (Mochizuki et al, 1994, J. Biol. Chem., 269, 9651-9658). Guinea-pig and rabbit in-vitro functional assays provide for each compound tested a mean KB value of 3-8 separate experiments, where KB is the concentration of the individual compound required to produce a 2-fold rightward shift in the concentration-response curve of senktide. Human receptor functional assay allows the determination of the concentration of the individual compound required to reduce by 50% (IC50 values) the Ca^++ mobilization induced by the agonist NKB.

[2] = biological target: T2, NK-3 receptor relative to the NK-2 receptor (Homo sapiens, UniProt P29371); experiment: Selectivity for the NK-3 receptor relative to the NK-2 receptor; type: binding; settings: in words
T2 construct: counter-target NK-2 receptor (TACR2, human P21452); assay not given
T2 sequence (P29371 1-465): T1 sequence (P29371 1-465)

NK-2 and NK-3 receptors = experiment: Combined NK-2/NK-3 antagonism; settings: in words

pIC50 [1]	Compound	selectivity for the NK-3 receptor relative to the NK-2 receptor [2]	combined NK-2/NK-3 antagonism (NK-2 and NK-3 receptors)
8.89	CC[C@H](NC(=O)c1c(OCCNC2Cc3ccccc3C2)c(-c2ccccc2)nc2ccccc12)c1ccccc1 [Example 8, (S)-N-(α-ethylbenzyl)-3-[2-(2-indanylamino)ethoxy]-2-phenylquinoline-4-carboxamide hydrochloride]		
8.66	CC[C@H](NC(=O)c1c(OCCNC(=O)c2ccccc2)c(-c2ccccc2)nc2ccccc12)c1ccccc1 [Example 9, (S)-N-(α-ethylbenzyl)-3-(2-benzoylaminoethoxy)-2-phenylquinoline-4-carboxamide]		
8.77	CC[C@H](NC(=O)c1c(OCCCC(=O)O)c(-c2ccccc2)nc2ccccc12)c1ccccc1 [Example 11, (S)-N-(a-ethylbenzyl)-3-(carboxypropoxy)-2-phenylquinoline-4-carboxamide]		
8.64	CC[C@H](NC(=O)c1c(OCCNC(=O)CCC(=O)O)c(-c2ccccc2)nc2ccccc12)c1ccccc1 [Example 14, (S)-N-(a-ethylbenzyl)-3-[2-(3-carboxypropanoyl)aminoethoxy]-2-phenylquinoline-4-carboxamide]		
9.22	CC[C@H](NC(=O)c1c(OCCNC(=O)Cc2ccccc2)c(-c2ccccc2)nc2ccccc12)c1ccccc1 [Example 22]		
8.59	CC[C@H](NC(=O)c1c(OCCNC(=O)CN)c(-c2ccccc2)nc2ccccc12)c1ccccc1 [Example 25, (S)-N-(a-ethylbenzyl)-3-(2-aminoacetylaminoethoxy)-2-phenylquinoline-4-carboxamide]		
9.05	CC[C@H](NC(=O)c1c(OCCNC(=O)Cc2ccncc2)c(-c2ccccc2)nc2ccccc12)c1ccccc1 [Example 26, (S)-N-(a-ethylbenzyl)-3-[2-(4-pyridylacetyl)aminoethoxy]-2-phenylquinoline-4-carboxamide]		
9.10	CC[C@H](NC(=O)c1c(OCCNC(=O)Cc2ccccc2C(=O)O)c(-c2ccccc2)nc2ccccc12)c1ccccc1 [Example 29, (S)-N-(a-ethylbenzyl)-3-[2-(2'-carboxyphenylacetyl)aminoethoxy]-2-phenylquinoline-4-carboxamide]		
8.82	CC[C@H](NC(=O)c1c(OCCNC(=O)c2ccccc2CC(=O)O)c(-c2ccccc2)nc2ccccc12)c1ccccc1 [Example 30, (S)-N-(a-ethylbenzyl)-3-[2-(2'-carboxymethylbenzoyl)aminoethoxy]-2-phenylquinoline-4-carboxamide]		
8.80	CC[C@H](NC(=O)c1c(OCc2ccncc2)c(-c2ccccc2)nc2ccccc12)c1ccccc1 [Example 34]	particularly selective for the NK-3 receptor relative to the NK-2 receptor	
9.70	CC[C@H](NC(=O)c1c(OCCNC(=O)c2cnccn2)c(-c2ccccc2)nc2ccccc12)c1ccccc1 [Example 36]	particularly selective for the NK-3 receptor relative to the NK-2 receptor	
9.40	CC[C@H](NC(=O)c1c(OCCCNC(=O)c2cnccn2)c(-c2ccccc2)nc2ccccc12)c1ccccc1 [Example 38]	particularly selective for the NK-3 receptor relative to the NK-2 receptor	
	CC[C@H](NC(=O)c1c(OCCNC(=O)Cc2ccccc2CNC)c(-c2ccccc2)nc2ccccc12)c1ccccc1 [Example 39]		particularly suitable as combined NK-2/NK-3 antagonists
8.89	CC[C@H](NC(=O)c1c(OCCNC(=O)Cc2ccccc2CN2CCCC2)c(-c2ccccc2)nc2ccccc12)c1ccccc1 [Example 40]		particularly suitable as combined NK-2/NK-3 antagonists
9.40	CC[C@H](NC(=O)c1c(OCCNC(=O)Cc2ccccc2O)c(-c2ccccc2)nc2ccccc12)c1ccccc1 [Example 42]		
